Measured values as given in PMC12030706, “Novel ^177Lu-Labeled [Thz^14]Bombesin(6–14) Derivatives with Low Pancreas Accumulation for Targeting Gastrin-Releasing Peptide Receptor-Expressing Cancer” (Pharmaceuticals, 2025).
Numbered stars: 1 amine (or outer) side, 2 acyl side, 3 side chain; on linkers, the order of the positions; unused ones are H or OH. Square brackets hold non-standard residues; d marks the D form. Peptide text beside a SMILES is read from it. * marks the point of attachment. DOTA = O=C(O)CN1CCN(CC(=O)O)CCN(CC(=O)*)CCN(CC(=O)O)CC1; NMeH = CN[C@@H](Cc1c[nH]cn1)C(=O)O; X1 = O=C(CN1CCC(N[*:1])CC1)[*:2]; Tle = CC(C)(C)[C@H](N)C(=O)O; Thz = O=C(O)[C@@H]1CSCN1

How the values were obtained:
[1] = LogD7.4 measurement, shake flask method; type: physicochemical; settings: n-octanol/DPBS pH 7.4, n = 3
Procedure: The logD7.4 values of all the ^177Lu-labeled GRPR-targeted ligands were measured using the shake flask method as previously reported. An aliquot (~2 MBq) of the radiolabeled product was added to a mixture of n-octanol (3 mL) and DPBS (3 mL, pH 7.4), followed by 1 min vortexing and 15 min centrifugation at 5000 rpm. Samples of the n-octanol (1 mL) and buffer (1 mL) layers were collected, and the activity was counted using a gamma counter. The logD7.4 values were calculated using the following equation: logD7.4=log10[countsn−octanolphase/countsbutterphase]

[2] = test system: PC-3 tumor-bearing NRG mouse; assay: Longitudinal SPECT/CT imaging in PC-3 tumor-bearing mice; type: in vivo, mice (NRG); settings: SPECT/CT images
Procedure: The PC-3 tumor-bearing mice were sedated (2.5% isoflurane in O2) and injected with ^177Lu-labeled ligands (15–32 MBq) through a lateral caudal tail vein. […] At each time point, a 5 min CT scan was obtained using 615 μA and 60 kV parameters for localization and attenuation, followed by 2 × 30 min static SPECT scans acquired in list mode with an energy window centered around 208 keV. The MILabs U-SPECT II reconstruction software (version 8.00) was used to reconstruct data, and the images were decay corrected to the time of injection with PMOD v 3.402 (PMOD Technologies GmbH, Fallanden, Switzerland).

[3] = Ex vivo biodistribution in PC-3 tumor-bearing mice; settings: mouse; for tissue to tissue ratio at 1 h / tissue to tissue ratio at 4 h / tissue to tissue ratio at 24 h / tissue to tissue ratio at 72 h / tissue to tissue ratio at 120 h: male, NOD.Cg-Rag1^tm1Mom Il2rg^tm1Wjl/SzJ (NRG), total radioactivity; for tissue to tissue ratio at 4 h / tissue uptake at 4 h: 4 h post-injection; for tissue to tissue ratio at 24 h / tissue uptake at 24 h: 24 h post-injection; for tissue to tissue ratio at 72 h / tissue uptake at 72 h: 72 h post-injection; for tissue to tissue ratio at 120 h / tissue uptake at 120 h: 120 h post-injection
Procedure: SPECT/CT imaging experiments were performed using an MILabs (Houten, The Netherlands) U-SPECT-II/CT scanner with a custom-made ultra-high-sensitivity big mouse collimator (2 mm pinhole size) following previously reported procedures. […] Male NOD.Cg-Rag1^tm1Mom Il2rg^tm1Wjl/SzJ (NRG) mice were used in these experiments because of their immunodeficient characteristics and excellent radiation tolerance. Mice were anaesthetized and subcutaneously implanted with 5 × 10^6 PC-3 prostate cancer cells (100 µL; 1:1 PBS/Matrigel) behind the left shoulder. SPECT/CT imaging and biodistribution studies were performed once the tumors reached a diameter of 5–8 mm, typically after approximately 4 weeks of growth.
For ex vivo biodistribution studies, the mice were injected with ~2–6 MBq of the radioligand. […] Blocking study was conducted at 1 h post-injection via co-injection of the radioligand with 100 μg of [D-Phe^6,Leu-NHEt^13,des-Met^14]Bombesin(6–14). Organs/tissues of interested were collected, weighed, and measured using an automatic gamma counter.

[4] = tumor/blood, Tumor/blood uptake ratio
[5] = tumor/kidney, Tumor/kidney uptake ratio
[6] = tumor/muscle, Tumor/muscle uptake ratio
[7] = tumor/pancreas, Tumor/pancreas uptake ratio
[8] = PC-3 tumor, Uptake in PC-3 tumor
[9] = adrenal glands, Uptake in adrenal glands

logD [1]: -2.28 ± 0.14
excretion pathway [2]: excreted mainly via the renal pathway
tissue to tissue ratio at 1 h ([3]; tumor/blood, Tumor/blood uptake ratio, 1 h blocked (co-injected with 100 µg [D-Phe6,Leu-NHEt13,des-Met14]Bombesin(6-14))): 3.91 ± 0.87
tissue to tissue ratio at 1 h ([3]; tumor/blood, Tumor/blood uptake ratio, 1 h post-injection): 8.08 ± 0.92
tissue to tissue ratio at 4 h [3, 4]: 162 ± 52
tissue to tissue ratio at 24 h [3, 4]: 841 ± 162
tissue to tissue ratio at 72 h [3, 4]: 1620 ± 500
tissue to tissue ratio at 120 h [3, 4]: 1800 ± 724
tissue to tissue ratio at 1 h ([3]; tumor/kidney, Tumor/kidney uptake ratio, 1 h blocked (co-injected with 100 µg [D-Phe6,Leu-NHEt13,des-Met14]Bombesin(6-14))): 0.7 ± 0.15
tissue to tissue ratio at 1 h ([3]; tumor/kidney, Tumor/kidney uptake ratio, 1 h post-injection): 1.95 ± 0.04
tissue to tissue ratio at 4 h [3, 5]: 2.14 ± 0.26
tissue to tissue ratio at 24 h [3, 5]: 2.88 ± 0.84
tissue to tissue ratio at 72 h [3, 5]: 7.34 ± 1.83
tissue to tissue ratio at 120 h [3, 5]: 7.46 ± 1.11
tissue to tissue ratio at 1 h ([3]; tumor/muscle, Tumor/muscle uptake ratio, 1 h blocked (co-injected with 100 µg [D-Phe6,Leu-NHEt13,des-Met14]Bombesin(6-14))): 25.2 ± 10.1
tissue to tissue ratio at 1 h ([3]; tumor/muscle, Tumor/muscle uptake ratio, 1 h post-injection): 60.1 ± 5.97
tissue to tissue ratio at 4 h [3, 6]: 454 ± 53.3
tissue to tissue ratio at 24 h [3, 6]: 672 ± 161
tissue to tissue ratio at 72 h [3, 6]: 736 ± 189
tissue to tissue ratio at 120 h [3, 6]: 588 ± 92.8
tissue to tissue ratio at 1 h ([3]; tumor/pancreas, Tumor/pancreas uptake ratio, 1 h blocked (co-injected with 100 µg [D-Phe6,Leu-NHEt13,des-Met14]Bombesin(6-14))): 2.79 ± 0.69
tissue to tissue ratio at 1 h ([3]; tumor/pancreas, Tumor/pancreas uptake ratio, 1 h post-injection): 3.06 ± 0.45
tissue to tissue ratio at 4 h [3, 7]: 7.53 ± 0.35
tissue to tissue ratio at 24 h [3, 7]: 6.78 ± 0.88
tissue to tissue ratio at 72 h [3, 7]: 6.18 ± 0.6
tissue to tissue ratio at 120 h [3, 7]: 4.08 ± 1
tissue uptake at 1 h ([3]; PC-3 tumor, 100 ug, Uptake in PC-3 tumor, 1 h blocked (co-injected with 100 µg [D-Phe6,Leu-NHEt13,des-Met14]Bombesin(6-14))): 5.03 ± 0.43 %ID/g
tissue uptake at 1 h ([3]; PC-3 tumor, Uptake in PC-3 tumor, 1 h post-injection): 13.4 ± 1.48 %ID/g
tissue uptake at 4 h [3, 8]: 11.8 ± 2.24 %ID/g
tissue uptake at 24 h [3, 8]: 7.07 ± 1.23 %ID/g
tissue uptake at 72 h [3, 8]: 4.18 ± 0.6 %ID/g
tissue uptake at 120 h [3, 8]: 2.25 ± 0.71 %ID/g
tissue uptake at 1 h ([3]; adrenal glands, 100 ug, Uptake in adrenal glands, 1 h blocked (co-injected with 100 µg [D-Phe6,Leu-NHEt13,des-Met14]Bombesin(6-14))): 0.75 ± 0.33 %ID/g
tissue uptake at 1 h ([3]; adrenal glands, Uptake in adrenal glands, 1 h post-injection): 1.43 ± 0.5 %ID/g
tissue uptake at 4 h [3, 9]: 0.59 ± 0.06 %ID/g
tissue uptake at 24 h [3, 9]: 0.41 ± 0.08 %ID/g
tissue uptake at 72 h [3, 9]: 0.2 ± 0.05 %ID/g
tissue uptake at 1 h ([3]; blood, 100 ug, Uptake in blood, 1 h blocked (co-injected with 100 µg [D-Phe6,Leu-NHEt13,des-Met14]Bombesin(6-14))): 1.34 ± 0.35 %ID/g
tissue uptake at 1 h ([3]; blood, Uptake in blood, 1 h post-injection): 1.67 ± 0.21 %ID/g
tissue uptake at 4 h ([3]; blood, Uptake in blood): 0.08 ± 0.01 %ID/g
tissue uptake at 24 h ([3]; blood, Uptake in blood): 0.01 %ID/g
tissue uptake at 1 h ([3]; bone, 100 ug, Uptake in bone, 1 h blocked (co-injected with 100 µg [D-Phe6,Leu-NHEt13,des-Met14]Bombesin(6-14))): 0.13 ± 0.03 %ID/g
tissue uptake at 4 h ([3]; bone, Uptake in bone): 0.03 ± 0.01 %ID/g
tissue uptake at 24 h ([3]; bone, Uptake in bone): 0.03 ± 0.01 %ID/g
tissue uptake at 72 h ([3]; bone, Uptake in bone): 0.03 ± 0.01 %ID/g
tissue uptake at 120 h ([3]; bone, Uptake in bone): 0.02 ± 0.01 %ID/g
tissue uptake at 1 h ([3]; brain, 100 ug, Uptake in brain, 1 h blocked (co-injected with 100 µg [D-Phe6,Leu-NHEt13,des-Met14]Bombesin(6-14))): 0.03 ± 0.01 %ID/g
tissue uptake at 1 h ([3]; brain, Uptake in brain, 1 h post-injection): 0.03 ± 0.01 %ID/g
tissue uptake at 4 h ([3]; brain, Uptake in brain): 0.01 %ID/g
tissue uptake at 1 h ([3]; fat, 100 ug, Uptake in fat, 1 h blocked (co-injected with 100 µg [D-Phe6,Leu-NHEt13,des-Met14]Bombesin(6-14))): 0.14 ± 0.04 %ID/g
tissue uptake at 1 h ([3]; fat, Uptake in fat, 1 h post-injection): 0.11 ± 0.04 %ID/g
tissue uptake at 4 h ([3]; fat, Uptake in fat): 0.02 ± 0.01 %ID/g
tissue uptake at 24 h ([3]; fat, Uptake in fat): 0.01 %ID/g
tissue uptake at 72 h ([3]; fat, Uptake in fat): 0.01 %ID/g
tissue uptake at 1 h ([3]; heart, 100 ug, Uptake in heart, 1 h blocked (co-injected with 100 µg [D-Phe6,Leu-NHEt13,des-Met14]Bombesin(6-14))): 0.43 ± 0.14 %ID/g
tissue uptake at 1 h ([3]; heart, Uptake in heart, 1 h post-injection): 0.45 ± 0.06 %ID/g
tissue uptake at 24 h ([3]; heart, Uptake in heart): 0.02 ± 0.01 %ID/g
tissue uptake at 72 h ([3]; heart, Uptake in heart): 0.02 %ID/g
tissue uptake at 120 h ([3]; heart, Uptake in heart): 0.01 %ID/g
tissue uptake at 1 h ([3]; kidneys, 100 ug, Uptake in kidneys, 1 h blocked (co-injected with 100 µg [D-Phe6,Leu-NHEt13,des-Met14]Bombesin(6-14))): 7.44 ± 1.71 %ID/g
tissue uptake at 24 h ([3]; kidneys, Uptake in kidneys): 2.64 ± 0.94 %ID/g
tissue uptake at 72 h ([3]; kidneys, Uptake in kidneys): 0.6 ± 0.17 %ID/g
SMILES: CC(C)C[C@H](NC(=O)[C@H](Cc1cnc[nH]1)N(C)C(=O)CNC(=O)[C@@H](NC(=O)[C@H](C)NC(=O)[C@H](Cc1c[nH]c2ccccc12)NC(=O)[C@H](Cc1c[nH]cn1)NC(=O)[C@@H](Cc1ccccc1)NC(=O)CN1CCC(NC(=O)CN2CCN(CC(=O)O)CCN(CC(=O)O)CCN(CC(=O)O)CC2)CC1)C(C)(C)C)C(=O)N1CSC[C@H]1C(N)=O [[^177Lu]Lu-LW01142, metal not drawn] ({DOTA}-[X1][dF]HWA[Tle]G[NMeH]L[Thz]-NH2)
